From ChEMBL document CHEMBL5108027, “An unanticipated discovery of novel naphthalimidopropanediols as potential broad-spectrum antibacterial members” (Eur J Med Chem, 2022)
Converted amounts (≈) assume the structure as drawn.

What was measured:
Type in all cases: functional
Staphylococcus aureus [1] = assay: Antibacterial activity against methicillin-resistant Staphylococcus aureus N315 measured by Muller-Hinton broth based microdilution assay
Enterococcus faecalis = assay: Antibacterial activity against Enterococcus faecalis measured by Muller-Hinton broth based microdilution assay
Staphylococcus aureus [2] = assay: Antibacterial activity against Staphylococcus aureus measured by Muller-Hinton broth based microdilution assay
Staphylococcus aureus [3] = assay: Antibacterial activity against Staphylococcus aureus ATCC 25923 measured by Muller-Hinton broth based microdilution assay
Staphylococcus aureus [4] = assay: Antibacterial activity against Staphylococcus aureus ATCC 29213 measured by Muller-Hinton broth based microdilution assay
Klebsiella pneumoniae = assay: Antibacterial activity against Klebsiella pneumoniae measured by Muller-Hinton broth based microdilution assay
Escherichia coli [5] = assay: Antibacterial activity against Escherichia coli measured by Muller-Hinton broth based microdilution assay
Pseudomonas aeruginosa [6] = assay: Antibacterial activity against Pseudomonas aeruginosa measured by Muller-Hinton broth based microdilution assay
Acinetobacter baumannii = assay: Antibacterial activity against Acinetobacter baumannii measured by Muller-Hinton broth based microdilution assay
Pseudomonas aeruginosa [7] = assay: Antibacterial activity against Pseudomonas aeruginosa ATCC 27853 measured by Muller-Hinton broth based microdilution assay
Escherichia coli [8] = assay: Antibacterial activity against Escherichia coli ATCC 25922 measured by Muller-Hinton broth based microdilution assay

Row | SMILES | MIC (Staphylococcus aureus [1]) [µg/mL] | MIC (Enterococcus faecalis) [µg/mL] | MIC (Staphylococcus aureus [2]) [µg/mL] | MIC (Staphylococcus aureus [3]) [µg/mL] | MIC (Staphylococcus aureus [4]) [µg/mL] | MIC (Klebsiella pneumoniae) [µg/mL] | MIC (Escherichia coli [5]) [µg/mL] | MIC (Pseudomonas aeruginosa [6]) [µg/mL] | MIC (Acinetobacter baumannii) [µg/mL] | MIC (Pseudomonas aeruginosa [7]) [µg/mL] | MIC (Escherichia coli [8]) [µg/mL]
1 | O=C1c2cccc3c(N/N=C/c4ccco4)ccc(c23)C(=O)N1C(CO)CO | 32 (≈ 84.3 µM) | 32 (≈ 84.3 µM) | 32 (≈ 84.3 µM) | 32 (≈ 84.3 µM) | 32 (≈ 84.3 µM) | 64 (≈ 169 µM) | 32 (≈ 84.3 µM) | 32 (≈ 84.3 µM) | 32 (≈ 84.3 µM) | 16 (≈ 42.2 µM) | 64 (≈ 169 µM)
2 | O=C1c2cccc3c(N/N=C/c4cccc(F)c4)ccc(c23)C(=O)N1C(CO)CO | 32 (≈ 78.5 µM) | 32 (≈ 78.5 µM) | 16 (≈ 39.3 µM) | 64 (≈ 157 µM) | 64 (≈ 157 µM) | 2 (≈ 4.91 µM) | 64 (≈ 157 µM) | 32 (≈ 78.5 µM) | 64 (≈ 157 µM) | 32 (≈ 78.5 µM) | 64 (≈ 157 µM)
3 | O=C1c2cccc3c(N/N=C/c4cc(=O)oc5cc(O)ccc45)ccc(c23)C(=O)N1C(CO)CO | 32 (≈ 67.6 µM) | 128 (≈ 270 µM) | 4 (≈ 8.45 µM) | 8 (≈ 16.9 µM) | 8 (≈ 16.9 µM) | 4 (≈ 8.45 µM) | 64 (≈ 135 µM) | 64 (≈ 135 µM) | 64 (≈ 135 µM) | 4 (≈ 8.45 µM) | 32 (≈ 67.6 µM)
4 | N#Cc1ccc(/C=N/Nc2ccc3c4c(cccc24)C(=O)N(C(CO)CO)C3=O)cc1 | 32 (≈ 77.2 µM) | 8 (≈ 19.3 µM) | 4 (≈ 9.65 µM) | 8 (≈ 19.3 µM) | 2 (≈ 4.83 µM) | 2 (≈ 4.83 µM) | 32 (≈ 77.2 µM) | 32 (≈ 77.2 µM) | 32 (≈ 77.2 µM) | 4 (≈ 9.65 µM) | 16 (≈ 38.6 µM)
5 | O=C1c2cccc3c(N/N=C/c4ccc(Cl)cc4)ccc(c23)C(=O)N1C(CO)CO | 16 (≈ 37.7 µM) | 32 (≈ 75.5 µM) | 32 (≈ 75.5 µM) | 64 (≈ 151 µM) | 128 (≈ 302 µM) | 16 (≈ 37.7 µM) | 64 (≈ 151 µM) | 32 (≈ 75.5 µM) | 128 (≈ 302 µM) | 32 (≈ 75.5 µM) | 64 (≈ 151 µM)
6 | O=C1c2cccc3c(N/N=C/c4nc5ccccc5[nH]4)ccc(c23)C(=O)N1C(CO)CO | 64 (≈ 149 µM) | 64 (≈ 149 µM) | 32 (≈ 74.5 µM) | 64 (≈ 149 µM) | 128 (≈ 298 µM) | 32 (≈ 74.5 µM) | 8 (≈ 18.6 µM) | 16 (≈ 37.3 µM) | 64 (≈ 149 µM) | 64 (≈ 149 µM) | 32 (≈ 74.5 µM)
7 | O=C1c2cccc3c(N/N=C/c4ccc(O)c(Cl)c4)ccc(c23)C(=O)N1C(CO)CO | 64 (≈ 146 µM) | 64 (≈ 146 µM) | 64 (≈ 146 µM) | 32 (≈ 72.8 µM) | 64 (≈ 146 µM) | 64 (≈ 146 µM) | 16 (≈ 36.4 µM) | 8 (≈ 18.2 µM) | 64 (≈ 146 µM) | 32 (≈ 72.8 µM) | 64 (≈ 146 µM)
8 | O=C1c2cccc3c(N/N=C/c4ccc(C(F)(F)F)cc4)ccc(c23)C(=O)N1C(CO)CO | 64 (≈ 140 µM) | 4 (≈ 8.74 µM) | 8 (≈ 17.5 µM) | 32 (≈ 70 µM) | 2 (≈ 4.37 µM) | 4 (≈ 8.74 µM) | 32 (≈ 70 µM) | 16 (≈ 35 µM) | 64 (≈ 140 µM) | 8 (≈ 17.5 µM) | 32 (≈ 70 µM)
9 | O=C1c2cccc3c(N/N=C/c4ccc(F)cc4F)ccc(c23)C(=O)N1C(CO)CO | 128 (≈ 301 µM) | 128 (≈ 301 µM) | 256 (≈ 602 µM) | 32 (≈ 75.2 µM) | 16 (≈ 37.6 µM) | 128 (≈ 301 µM) | 256 (≈ 602 µM) | 256 (≈ 602 µM) | 256 (≈ 602 µM) | 256 (≈ 602 µM) | 256 (≈ 602 µM)
10 | O=C1c2cccc3c(N/N=C/c4ccc(O)c(Br)c4)ccc(c23)C(=O)N1C(CO)CO | 8 (≈ 16.5 µM) | 4 (≈ 8.26 µM) | 16 (≈ 33 µM) | 64 (≈ 132 µM) | 64 (≈ 132 µM) | 16 (≈ 33 µM) | 64 (≈ 132 µM) | 64 (≈ 132 µM) | 64 (≈ 132 µM) | 16 (≈ 33 µM) | 32 (≈ 66.1 µM)
11 | O=C1c2cccc3c(N/N=C/c4cccc(O)c4)ccc(c23)C(=O)N1C(CO)CO | 128 (≈ 316 µM) | 128 (≈ 316 µM) | 256 (≈ 631 µM) | 32 (≈ 78.9 µM) | 256 (≈ 631 µM) | 128 (≈ 316 µM) | 256 (≈ 631 µM) | 256 (≈ 631 µM) | 256 (≈ 631 µM) | 256 (≈ 631 µM) | 256 (≈ 631 µM)
12 | O=C1c2cccc3c(N/N=C/c4ccc(Cl)cc4Cl)ccc(c23)C(=O)N1C(CO)CO | 32 (≈ 69.8 µM) | 64 (≈ 140 µM) | 32 (≈ 69.8 µM) | 8 (≈ 17.5 µM) | 8 (≈ 17.5 µM) | 128 (≈ 279 µM) | 256 (≈ 559 µM) | 128 (≈ 279 µM) | 128 (≈ 279 µM) | 128 (≈ 279 µM) | 256 (≈ 559 µM)
13 | O=C1c2cccc3c(N/N=C/c4ccc(O)c(O)c4O)ccc(c23)C(=O)N1C(CO)CO | 16 (≈ 36.6 µM) | 8 (≈ 18.3 µM) | 4 (≈ 9.14 µM) | 32 (≈ 73.2 µM) | 64 (≈ 146 µM) | 2 (≈ 4.57 µM) | 64 (≈ 146 µM) | 64 (≈ 146 µM) | 16 (≈ 36.6 µM) | 4 (≈ 9.14 µM) | 16 (≈ 36.6 µM)
14 | O=C1c2cccc3c(N/N=C/c4c[nH]c5ccccc45)ccc(c23)C(=O)N1C(CO)CO | 4 (≈ 9.34 µM) | 64 (≈ 149 µM) | 8 (≈ 18.7 µM) | 8 (≈ 18.7 µM) | 2 (≈ 4.67 µM) | 64 (≈ 149 µM) | 64 (≈ 149 µM) | 4 (≈ 9.34 µM) | 64 (≈ 149 µM) | 32 (≈ 74.7 µM) | 64 (≈ 149 µM)
15 | C=CCn1cc(/C=N/Nc2ccc3c4c(cccc24)C(=O)N(C(CO)CO)C3=O)c2ccccc21 | 64 (≈ 137 µM) | 64 (≈ 137 µM) | 64 (≈ 137 µM) | 16 (≈ 34.2 µM) | 32 (≈ 68.3 µM) | 4 (≈ 8.54 µM) | 32 (≈ 68.3 µM) | 128 (≈ 273 µM) | 64 (≈ 137 µM) | 64 (≈ 137 µM) | 16 (≈ 34.2 µM)
16 | O=C1c2cccc3c(N/N=C/c4ccccc4F)ccc(c23)C(=O)N1C(CO)CO | 32 (≈ 78.5 µM) | 2 (≈ 4.91 µM) | 8 (≈ 19.6 µM) | 64 (≈ 157 µM) | 16 (≈ 39.3 µM) | 32 (≈ 78.5 µM) | 32 (≈ 78.5 µM) | 32 (≈ 78.5 µM) | 64 (≈ 157 µM) | 8 (≈ 19.6 µM) | 32 (≈ 78.5 µM)
17 | O=C1c2cccc3c(N/N=C/c4ncc[nH]4)ccc(c23)C(=O)N1C(CO)CO | 64 (≈ 169 µM) | 64 (≈ 169 µM) | 32 (≈ 84.3 µM) | 64 (≈ 169 µM) | 128 (≈ 337 µM) | 64 (≈ 169 µM) | 16 (≈ 42.2 µM) | 8 (≈ 21.1 µM) | 64 (≈ 169 µM) | 4 (≈ 10.5 µM) | 64 (≈ 169 µM)
18 | CCCCc1nc(Cl)c(/C=N/Nc2ccc3c4c(cccc24)C(=O)N(C(CO)CO)C3=O)[nH]1 | 64 (≈ 136 µM) | 32 (≈ 68.1 µM) | 32 (≈ 68.1 µM) | 64 (≈ 136 µM) | 32 (≈ 68.1 µM) | 8 (≈ 17 µM) | 16 (≈ 34 µM) | 64 (≈ 136 µM) | 64 (≈ 136 µM) | 8 (≈ 17 µM) | 32 (≈ 68.1 µM)
19 | O=C1c2cccc3c(N/N=C/c4ccccc4)ccc(c23)C(=O)N1C(CO)CO | 64 (≈ 164 µM) | 64 (≈ 164 µM) | 64 (≈ 164 µM) | 2 (≈ 5.14 µM) | 32 (≈ 82.2 µM) | 16 (≈ 41.1 µM) | 128 (≈ 329 µM) | 1 (≈ 2.57 µM) | 64 (≈ 164 µM) | 32 (≈ 82.2 µM) | 64 (≈ 164 µM)
